The test system of this assay is HBV rcDNA. Description: HepDE19 assay with bDNA quantitation of HBV rcDNA. Format: cell-based, hepatitis B virus (HBV). The method, boiled down:
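HepDE19 cells were switched to tetracycline-free medium and exposed to compound (0.5% DMSO final) for 7 days at 37° C. rcDNA was then quantified by bDNA with an HBV-specific probe set. In parallel, viability was read as ATP content (CellTiter-Glo) after 4 days on replicate plates.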

Where [1] appears, read: HepDE19 cells, 7 day incubation, rcDNA measured by Quantigene 2.0 bDNA assay, top concentration 25 μM, read-out: DE-19bDNA EC50.
[2] abbreviates: Hepatitis B virus, HepDE19, 168 h, read-out: DE-19bDNA EC50 (μM), HepDE19 cells, 7 day incubation, rcDNA measured by Quantigene 2.0 bDNA assay, top concentration 25 μM.
Setting [3] is: Hepatitis B virus, HepDE19, 168 h, HepDE19 cells, 7 day incubation, rcDNA measured by Quantigene 2.0 bDNA assay, top concentration 25 μM, read-out: DE-19bDNA EC50.

Where two headings read alike, the source gives them in different places.

On to `CC(c1c[nH]c(=O)c2cc(F)c(F)cc12)N(C)C(=O)C1Cc2cc(F)ccc2N1` (stereo not drawn) [Compound 61, N-(1-(6,7-Difluoro-1-oxo-1,2-dihydroisoquinolin-4-yl)ethyl)-5-fluoro-N-methylindoline-2-carboxamide], for which the EC50 under setting [1] amounted to 6.7 µM.

Consider `CC(c1c[nH]c(=O)c2cc(F)c(F)cc12)N(C)C(=O)C1Cc2cc(F)ccc2N1` (stereo not drawn) [Compound 62, N-(1-(6,7-Difluoro-1-oxo-1,2-dihydroisoquinolin-4-yl)ethyl)-5-fluoro-N-methylindoline-2-carboxamide], for which, under setting [1], the EC50 stood at 0.19 µM.

As to `CC(c1c[nH]c(=O)c2cc(F)c(F)cc12)N(C)C(=O)C1Cc2cc(F)ccc2N1` (stereo not drawn) [Compound 63, N-(1-(6,7-Difluoro-1-oxo-1,2-dihydroisoquinolin-4-yl)ethyl)-5-fluoro-N-methylindoline-2-carboxamide], under setting [1], the EC50 came out at 5.2 µM.

In the case of `CC(c1c[nH]c(=O)c2cc(F)c(F)cc12)N(C)C(=O)C1Cc2cc(F)ccc2N1` (stereo not drawn) [Compound 64, N-(1-(6,7-Difluoro-1-oxo-1,2-dihydroisoquinolin-4-yl)ethyl)-5-fluoro-N-methylindoline-2-carboxamide], the EC50 under setting [1] amounted to 0.02 µM.

In the case of `CC(c1c[nH]c(=O)c2c(F)c(F)ccc12)N(C)C(=O)C1Cc2c(F)cc(F)cc2N1` (stereo not drawn) [Compound 65, N-(1-(7,8-Difluoro-1-oxo-1,2-dihydroisoquinolin-4-yl)ethyl)-4,6-difluoro-N-methylindoline-2-carboxamide], the EC50 under setting [1] worked out at 11 µM.

On to `CC(c1c[nH]c(=O)c2c(F)c(F)ccc12)N(C)C(=O)C1Cc2c(F)cc(F)cc2N1` (stereo not drawn) [Compound 66, N-(1-(7,8-Difluoro-1-oxo-1,2-dihydroisoquinolin-4-yl)ethyl)-4,6-difluoro-N-methylindoline-2-carboxamide], for which, under setting [1], the EC50 came to 0.21 µM.

For the compound `CC(c1c[nH]c(=O)c2c(F)c(F)ccc12)N(C)C(=O)C1Cc2c(F)cc(F)cc2N1` (stereo not drawn) [Compound 67, N-(1-(7,8-Difluoro-1-oxo-1,2-dihydroisoquinolin-4-yl)ethyl)-4,6-difluoro-N-methylindoline-2-carboxamide], under setting [1], the EC50 was found to be 3.1 µM.

Take `CC(c1c[nH]c(=O)c2c(F)c(F)ccc12)N(C)C(=O)C1Cc2c(F)cc(F)cc2N1` (stereo not drawn) [Compound 68, N-(1-(7,8-Difluoro-1-oxo-1,2-dihydroisoquinolin-4-yl)ethyl)-4,6-difluoro-N-methylindoline-2-carboxamide]: the EC50 under setting [1] was determined as 0.2 µM.

`CC(c1c[nH]c(=O)c2c(F)c(F)ccc12)N(C)C(=O)C1Cc2cc(F)ccc2N1` (stereo not drawn) [Compound 73, N-(1-(7,8-Difluoro-1-oxo-1,2-dihydroisoquinolin-4-yl)ethyl)-5-fluoro-N-methylindoline-2-carboxamide]: the EC50 under setting [1] is 10 µM.

Turning to `CC(c1c[nH]c(=O)c2c(F)c(F)ccc12)N(C)C(=O)C1Cc2cc(F)ccc2N1` (stereo not drawn) [Compound 74, N-(1-(7,8-Difluoro-1-oxo-1,2-dihydroisoquinolin-4-yl)ethyl)-5-fluoro-N-methylindoline-2-carboxamide], the EC50 under setting [1] worked out at 0.26 µM.

For the compound `CC(c1c[nH]c(=O)c2c(F)c(F)ccc12)N(C)C(=O)C1Cc2cc(F)ccc2N1` (stereo not drawn) [Compound 75, N-(1-(7,8-Difluoro-1-oxo-1,2-dihydroisoquinolin-4-yl)ethyl)-5-fluoro-N-methylindoline-2-carboxamide], the EC50 under setting [1] turned out to be 0.83 µM.

`CC(c1c[nH]c(=O)c2c(F)c(F)ccc12)N(C)C(=O)C1Cc2cc(F)ccc2N1` (stereo not drawn) [Compound 76, N-(1-(7,8-Difluoro-1-oxo-1,2-dihydroisoquinolin-4-yl)ethyl)-5-fluoro-N-methylindoline-2-carboxamide]: the EC50 under setting [1] is 4.4 µM.

`C[C@H](c1c[nH]c(=O)c2c(F)c(F)ccc12)N(C)C(=O)c1cccc(=O)[nH]1` [Compound 87, (R)-N-(1-(7,8-Difluoro-1-oxo-1,2-dihydroisoquinolin-4-yl)ethyl)-N-methyl-6-oxo-1,6-dihydropyridine-2-carboxamide]: the EC50 under setting [2] was 18 µM.

In the case of `CC(c1c[nH]c(=O)c2cc(F)c(F)cc12)N(C)C(=O)C1Cc2c(F)cc(F)cc2N1` (stereo not drawn) [Compound 98, N-(1-(6,7-Difluoro-1-oxo-1,2-dihydroisoquinolin-4-yl)ethyl)-4,6-difluoro-N-methylindoline-2-carboxamide], the EC50 under setting [1] amounted to 5.9 µM.

Turning to `CC(c1c[nH]c(=O)c2cc(F)c(F)cc12)N(C)C(=O)C1Cc2c(F)cc(F)cc2N1` (stereo not drawn) [Compound 99, N-(1-(6,7-Difluoro-1-oxo-1,2-dihydroisoquinolin-4-yl)ethyl)-4,6-difluoro-N-methylindoline-2-carboxamide], the EC50 under setting [1] came to 0.07 µM.

On to `CC(c1c[nH]c(=O)c2cc(F)c(F)cc12)N(C)C(=O)C1Cc2c(F)cc(F)cc2N1` (stereo not drawn) [Compound 100, N-(1-(6,7-Difluoro-1-oxo-1,2-dihydroisoquinolin-4-yl)ethyl)-4,6-difluoro-N-methylindoline-2-carboxamide], for which the EC50 under setting [1] turned out to be 0.8 µM.

With `CC(c1c[nH]c(=O)c2cc(F)c(F)cc12)N(C)C(=O)C1Cc2c(F)cc(F)cc2N1` (stereo not drawn) [Compound 101, N-(1-(6,7-Difluoro-1-oxo-1,2-dihydroisoquinolin-4-yl)ethyl)-4,6-difluoro-N-methylindoline-2-carboxamide], the EC50 under setting [1] was determined as 0.03 µM.

Turning to `CC(c1c[nH]c(=O)c2c(F)c(F)ccc12)N(C)C(=O)C1Nc2ccccc2C1(C)C` (stereo not drawn) [Compound 104, N-(1-(7,8-Difluoro-1-oxo-1,2-dihydroisoquinolin-4-yl)ethyl)-N,3,3-trimethylindoline-2-carboxamide], the EC50 under setting [3] was at least 25 µM.

As for `CC(c1c[nH]c(=O)c2c(F)c(F)ccc12)N(C)C(=O)C1Nc2ccccc2C1(C)C` (stereo not drawn) [Compound 105, N-(1-(7,8-Difluoro-1-oxo-1,2-dihydroisoquinolin-4-yl)ethyl)-N,3,3-trimethylindoline-2-carboxamide], the EC50 under setting [1] was at least 25 µM.

For `CC(c1c[nH]c(=O)c2c(F)c(F)ccc12)N(C)C(=O)C1Nc2ccccc2C1(C)C` (stereo not drawn) [Compound 106, N-(1-(7,8-Difluoro-1-oxo-1,2-dihydroisoquinolin-4-yl)ethyl)-N,3,3-trimethylindoline-2-carboxamide], the EC50 under setting [1] was at least 25 µM.

`CC(c1c[nH]c(=O)c2c(F)c(F)ccc12)N(C)C(=O)C1Nc2ccccc2C1(C)C` (stereo not drawn) [Compound 107, N-(1-(7,8-Difluoro-1-oxo-1,2-dihydroisoquinolin-4-yl)ethyl)-N,3,3-trimethylindoline-2-carboxamide]: the EC50 under setting [1] was found to be 16 µM.

Turning to `CC(c1c[nH]c(=O)c2cc(F)c(F)cc12)N(C)C(=O)C1Nc2ccccc2C1(C)C` (stereo not drawn) [Compound 112, N-(1-(6,7-Difluoro-1-oxo-1,2-dihydroisoquinolin-4-yl)ethyl)-N,3,3-trimethylindoline-2-carboxamide], under setting [3], the EC50 is 21 µM.

With `CC(c1c[nH]c(=O)c2cc(F)c(F)cc12)N(C)C(=O)C1Nc2ccccc2C1(C)C` (stereo not drawn) [Compound 113, N-(1-(6,7-Difluoro-1-oxo-1,2-dihydroisoquinolin-4-yl)ethyl)-N,3,3-trimethylindoline-2-carboxamide], the EC50 under setting [1] was at least 25 µM.

Consider `CC(c1c[nH]c(=O)c2cc(F)c(F)cc12)N(C)C(=O)C1Nc2ccccc2C1(C)C` (stereo not drawn) [Compound 114, N-(1-(6,7-Difluoro-1-oxo-1,2-dihydroisoquinolin-4-yl)ethyl)-N,3,3-trimethylindoline-2-carboxamide], for which, under setting [1], the EC50 amounted to 16 µM.

For the compound `CC(c1c[nH]c(=O)c2cc(F)c(F)cc12)N(C)C(=O)C1Nc2ccccc2C1(C)C` (stereo not drawn) [Compound 115, N-(1-(6,7-Difluoro-1-oxo-1,2-dihydroisoquinolin-4-yl)ethyl)-N,3,3-trimethylindoline-2-carboxamide], the EC50 under setting [1] stood at 19 µM.

Consider `C[C@H](c1c[nH]c(=O)c2ccccc12)N(C)C(=O)c1ccc(C(F)(F)F)c(F)c1` [Compound 145, (R)-3-Fluoro-N-methyl-N-(1-(1-oxo-1,2-dihydroisoquinolin-4-yl)ethyl)-4-(trifluoromethyl)benzamide], for which the EC50 under setting [3] is 0.11 µM.

Regarding `C[C@H](c1c[nH]c(=O)c2ccccc12)N(C)C(=O)c1ccc(Br)cc1` [Compound 146, (R)-4-Bromo-N-methyl-N-(1-(1-oxo-1,2-dihydroisoquinolin-4-yl)ethyl)benzamide], the EC50 under setting [2] is 0.15 µM.

Consider `C[C@H](c1c[nH]c(=O)c2ccccc12)N(C)C(=O)c1ccc(C(F)(F)F)cc1` [Compound 147, (R)-N-Methyl-N-(1-(1-oxo-1,2-dihydroisoquinolin-4-yl)ethyl)-4-(trifluoromethyl)benzamide], for which the EC50 under setting [3] was 0.16 µM.

As for `C[C@H](c1c[nH]c(=O)c2ccccc12)N(C)C(=O)c1ccc(Cl)c(F)c1` [Compound 148, (R)-4-Chloro-3-fluoro-N-methyl-N-(1-(1-oxo-1,2-dihydroisoquinolin-4-yl)ethyl)benzamide], the EC50 under setting [3] is 0.27 µM.

In the case of `C[C@H](c1c[nH]c(=O)c2ccccc12)N(C)C(=O)c1ccc(F)c(Cl)c1` [Compound 149, (R)-3-Chloro-4-fluoro-N-methyl-N-(1-(1-oxo-1,2-dihydroisoquinolin-4-yl)ethyl)benzamide], under setting [3], the EC50 came out at 0.68 µM.

Turning to `C[C@H](c1c[nH]c(=O)c2ccccc12)N(C)C(=O)c1ccc(Br)c(F)c1` [Compound 150, (R)-4-Bromo-3-fluoro-N-methyl-N-(1-(1-oxo-1,2-dihydroisoquinolin-4-yl)ethyl)benzamide], the EC50 under setting [3] was found to be 0.51 µM.

In the case of `C[C@H](c1c[nH]c(=O)c2ccccc12)N(C)C(=O)Cc1ccc(Cl)cc1` [Compound 151, (R)-2-(4-Chlorophenyl)-N-methyl-N-(1-(1-oxo-1,2-dihydroisoquinolin-4-yl)ethyl)acetamide], the EC50 under setting [3] was 3.54 µM.

For `C[C@H](c1c[nH]c(=O)c2ccccc12)N(C)C(=O)c1cc2ccccn2c1` [Compound 152, (R)-N-Methyl-N-(1-(1-oxo-1,2-dihydroisoquinolin-4-yl)ethyl)indolizine-2-carboxamide], under setting [2], the EC50 worked out at 0.47 µM.

These data come from US20230295115A1, “SUBSTITUTED ISOQUINOLINYLMETHYL AMIDES, ANALOGUES THEREOF, AND METHODS USING SAME” (priority 2020, published 2023).
